pIC50: −log10 of the molar value.
Molecular target: recombinant human mGluR2 (Homo sapiens (Human), UniProt Q14416)
Test: FLIPR Ca2+ mobilization antagonist assay in CHO dhfr- cells expressing human mGluR2 and Gα16
Type: cell-based
Conditions: antagonist response after addition of 2,500 nM glutamate, Fluo-4 AM, FLIPR384
Procedure, shortened: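 CHO dhfr- cells stably co-expressing human mGluR2 and Gα16, Fluo-4 AM loaded, preincubated with compound, then challenged with 2,500 nM glutamate; Ca2+ response read by FLIPR. Maximum calcium response vs concentration fitted to four-parameter logistic for IC50.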

Sequence of recombinant human mGluR2 (Q14416 19-872): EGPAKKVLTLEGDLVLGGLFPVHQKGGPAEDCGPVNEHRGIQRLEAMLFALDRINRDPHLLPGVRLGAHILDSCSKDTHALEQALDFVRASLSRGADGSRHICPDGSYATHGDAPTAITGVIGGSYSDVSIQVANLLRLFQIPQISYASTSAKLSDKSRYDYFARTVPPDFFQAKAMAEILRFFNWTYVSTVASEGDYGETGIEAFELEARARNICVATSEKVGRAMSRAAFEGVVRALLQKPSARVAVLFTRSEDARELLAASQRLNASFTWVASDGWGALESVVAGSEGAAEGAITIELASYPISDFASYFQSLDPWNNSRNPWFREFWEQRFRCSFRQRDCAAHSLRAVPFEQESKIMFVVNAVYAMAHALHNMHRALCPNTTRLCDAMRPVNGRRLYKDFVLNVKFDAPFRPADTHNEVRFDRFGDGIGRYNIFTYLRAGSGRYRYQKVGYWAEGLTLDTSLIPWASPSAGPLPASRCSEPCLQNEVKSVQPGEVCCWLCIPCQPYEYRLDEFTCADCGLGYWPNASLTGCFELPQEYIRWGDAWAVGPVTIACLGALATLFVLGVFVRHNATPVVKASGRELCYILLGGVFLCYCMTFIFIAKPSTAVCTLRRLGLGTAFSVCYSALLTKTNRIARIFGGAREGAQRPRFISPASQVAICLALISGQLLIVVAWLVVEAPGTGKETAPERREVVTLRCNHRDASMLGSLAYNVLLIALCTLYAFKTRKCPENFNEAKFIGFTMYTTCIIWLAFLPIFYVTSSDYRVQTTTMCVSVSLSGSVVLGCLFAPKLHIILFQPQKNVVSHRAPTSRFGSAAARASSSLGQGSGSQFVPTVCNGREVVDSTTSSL

SMILES	pIC50
COc1cc(CN2CCc3c(N4CCC(F)(F)CC4)cc(C(N)=O)nc3C2)ccn1 [Example 5-3, 4-(4,4-difluoropiperidin-1-yl)-7-[(2-methoxypyridin-4-yl)methyl]-5,6,7,8-tetrahydro-1,7-naphthyridine-2-carboxamide]	7.39
NC(=O)c1cc(N2CCCC3(CC3)C2)c2c(n1)CN(Cc1ccnc(C(F)(F)F)c1)CC2 [Example 5-4, 4-(5-azaspiro[2.5]oct-5-yl)-7-{[2-(trifluoromethyl)pyridin-4-yl]methyl}-5,6,7,8-tetrahydro-1,7-naphthyridine-2-carboxamide]	7.54
Cc1cn(-c2cc(C(N)=O)nc3c2CCN(Cc2ccnc(C(F)(F)F)c2)C3)nc1C [Example 5-7, 4-(3,4-dimethyl-1H-pyrazol-1-yl)-7-{[2-(trifluoromethyl)pyridin-4-yl]methyl}-5,6,7,8-tetrahydro-1,7-naphthyridine-2-carboxamide]	7.37
COc1cnn(-c2cc(C(N)=O)nc3c2CCN(Cc2ccnc(C(F)(F)F)c2)C3)c1 [Example 5-8, 4-(4-methoxy-1H-pyrazol-1-yl)-7-{[2-(trifluoromethyl)pyridin-4-yl]methyl}-5,6,7,8-tetrahydro-1,7-naphthyridine-2-carboxamide]	7.05
NC(=O)c1cc(-n2cc(C(F)(F)F)cn2)c2c(n1)CN(Cc1ccnc(C(F)(F)F)c1)CC2 [Example 5-10, 4-[4-(trifluoromethyl)-1H-pyrazol-1-yl]-7-{[2-(trifluoromethyl)pyridin-4-yl]methyl}-5,6,7,8-tetrahydro-1,7-naphthyridine-2-carboxamide]	7.49
NC(=O)c1cc(-c2ccc(Cl)cn2)c2c(n1)CN(Cc1ccnc(C(F)(F)F)c1)CC2 [Example 6-1, 4-(5-chloropyridin-2-yl)-7-((2-(trifluoromethyl)pyridin-4-yl)methyl)-5,6,7,8-tetrahydro-1,7-naphthyridine-2-carboxamide]	7.93
Cc1csc(-c2cc(C(N)=O)nc3c2CCN(Cc2ccnc(C(F)(F)F)c2)C3)n1 [Example 6-2, 4-(4-methyl-1,3-thiazol-2-yl)-7-{[2-(trifluoromethyl)pyridin-4-yl]methyl}-5,6,7,8-tetrahydro-1,7-naphthyridine-2-carboxamide]	5.94
Cc1ncc(-c2cc(C(N)=O)nc3c2CCN(Cc2ccnc(OC(F)F)c2)C3)s1 [Example 6-3, 7-{[2-(difluoromethoxy)pyridin-4-yl]methyl}-4-(2-methyl-1,3-thiazol-5-yl)-5,6,7,8-tetrahydro-1,7-naphthyridine-2-carboxamide]	7.73
Cc1ncc(-c2cc(C(N)=O)nc3c2CCN(Cc2ccnn2C)C3)s1 [Example 6-4, 7-[(1-methyl-1H-pyrazol-5-yl)methyl]-4-(2-methyl-1,3-thiazol-5-yl)-5,6,7,8-tetrahydro-1,7-naphthyridine-2-carboxamide]	6.92
NC(=O)c1cc(-c2ccc(Cl)cc2F)c2c(n1)CN(Cc1ncon1)CC2 [Example 9-1, 7-((1,2,4-oxadiazol-3-yl)methyl)-4-(4-chloro-2-fluorophenyl)-5,6,7,8-tetrahydro-1,7-naphthyridine-2-carboxamide]	7.56
Cc1nc(CN2CCc3c(-c4ccc(Cl)cc4F)cc(C(N)=O)nc3C2)no1 [Example 9-2, 4-(4-chloro-2-fluorophenyl)-7-[(5-methyl-1,2,4-oxadiazol-3-yl)methyl]-5,6,7,8-tetrahydro-1,7-naphthyridine-2-carboxamide]	8.01
COc1nccc(CN2CCc3c(-c4ccc(Cl)cc4F)cc(C(N)=O)nc3C2)n1 [Example 9-3, 4-(4-chloro-2-fluorophenyl)-7-[(2-methoxypyrimidin-4-yl)methyl]-5,6,7,8-tetrahydro-1,7-naphthyridine-2-carboxamide]	7.85
Cn1ncnc1CN1CCc2c(-c3ccc(Cl)cc3F)cc(C(N)=O)nc2C1 [Example 9-4, 4-(4-chloro-2-fluorophenyl)-7-[(1-methyl-1H-1,2,4-triazol-5-yl)methyl]-5,6,7,8-tetrahydro-1,7-naphthyridine-2-carboxamide]	7.62
Cc1noc(CN2CCc3c(-c4ccc(Cl)cc4F)cc(C(N)=O)nc3C2)n1 [Example 9-5, 4-(4-chloro-2-fluorophenyl)-7-[(3-methyl-1,2,4-oxadiazol-5-yl)methyl]-5,6,7,8-tetrahydro-1,7-naphthyridine-2-carboxamide]	7.90
CC(C)c1noc(CN2CCc3c(-c4ccc(Cl)cc4F)cc(C(N)=O)nc3C2)n1 [Example 9-6, 4-(4-chloro-2-fluorophenyl)-7-{[3-(1-methylethyl)-1,2,4-oxadiazol-5-yl]methyl}-5,6,7,8-tetrahydro-1,7-naphthyridine-2-carboxamide]	8.10
COc1ccnc(CN2CCc3c(-c4ccc(Cl)cc4F)cc(C(N)=O)nc3C2)n1 [Example 9-7, 4-(4-chloro-2-fluorophenyl)-7-[(4-methoxypyrimidin-2-yl)methyl]-5,6,7,8-tetrahydro-1,7-naphthyridine-2-carboxamide]	7.93
CC1(CN2CCc3c(-c4ccc(Cl)cc4F)cc(C(N)=O)nc3C2)COC1 [Example 10-1, 4-(4-chloro-2-fluorophenyl)-7-((3-methyloxetan-3-yl)methyl)-5,6,7,8-tetrahydro-1,7-naphthyridine-2-carboxamide]	7.51
COc1ncc(CN2CCc3c(-c4ccc(Cl)cc4F)cc(C(N)=O)nc3C2)cn1 [Example 10-2, 4-(4-chloro-2-fluorophenyl)-7-[(2-methoxypyrimidin-5-yl)methyl]-5,6,7,8-tetrahydro-1,7-naphthyridine-2-carboxamide]	8.13
NC(=O)c1cc(-c2ccc(Cl)cc2F)c2c(n1)CN(Cc1cccnc1)CC2 [Example 10-3, 4-(4-chloro-2-fluorophenyl)-7-(pyridin-3-ylmethyl)-5,6,7,8-tetrahydro-1,7-naphthyridine-2-carboxamide]	7.92
Cn1cc(CN2CCc3c(-c4ccc(Cl)cc4F)cc(C(N)=O)nc3C2)cn1 [Example 10-4, 4-(4-chloro-2-fluorophenyl)-7-[(1-methyl-1H-pyrazol-4-yl)methyl]-5,6,7,8-tetrahydro-1,7-naphthyridine-2-carboxamide]	7.84
NC(=O)c1cc(-c2c(F)cccc2F)c2c(n1)CN(Cc1ccnc(C(F)(F)F)n1)CC2 [Example 11-1, 4-(2,6-Difluorophenyl)-7-((2-(trifluoromethyl)pyrimidin-4-yl)methyl)-5,6,7,8-tetrahydro-1,7-naphthyridine-2-carboxamide]	7.59
NC(=O)c1cc(-c2cc(F)ccc2F)c2c(n1)CN(Cc1ccnc(C(F)(F)F)n1)CC2 [Example 11-2, 4-(2,5-difluorophenyl)-7-{[2-(trifluoromethyl)pyrimidin-4-yl]methyl}-5,6,7,8-tetrahydro-1,7-naphthyridine-2-carboxamide]	7.28
NC(=O)c1cc(-c2ccc(Cl)cc2F)c2c(n1)CN(Cc1ccnc(C(F)(F)F)n1)CC2 [Example 11-3, 4-(4-chloro-2-fluorophenyl)-7-{[2-(trifluoromethyl)pyrimidin-4-yl]methyl}-5,6,7,8-tetrahydro-1,7-naphthyridine-2-carboxamide]	8.14
NC(=O)c1cc(-c2ccccc2Cl)c2c(n1)CN(Cc1ccnc(C(F)(F)F)n1)CC2 [Example 11-4, 4-(2-chlorophenyl)-7-{[2-(trifluoromethyl)pyrimidin-4-yl]methyl}-5,6,7,8-tetrahydro-1,7-naphthyridine-2-carboxamide]	7.71
